Experimental data reported in publication PMC9313812, “The Pseudo‐Natural Product Rhonin Targets RHOGDI” (Angewandte Chemie (International Ed. in English), 2022).

Assays:
NIH/3T3 cells = assay: Wound healing assay (cell migration); type: cell-based; settings: 10 µM Rhonin; 2 µg/ml RHO inhibitor I; purmorphamine 2 µM
Description: Supplementary Figure S13. Influence of 10 µM Rhonin on cell migration in NIH/3T3 cells upon stimulation with purmorphamine (Purm, 2 µM). The RHO inhibitor I was used as a control. Cell migration was monitored by means of a wound healing assay. Data ar e representative of three independent experiments (n=3, N = 3), mean values ± SD. […]
40,000 x g for 30 min at 4°C. Supernatants were collected as cytoplasmic fraction and pellets were resuspended into a homogenization buffer (0.25 M sucrose, 20 mM Tris/HCl pH 7.4, 25 mM KCl, 5 mM MgCl2) and further centrifuged (2 h at 100,000 x g) using an iodixanol (OptiPrep, Axis Shield) gradient solution. Obtained fractions were used for immunoblotting.
NIH/3T3 cells were seeded in a 96 plate (10,000 cell per well/ plate name: Essen Bioscience NO 4379). NIH/3T3 cells were grown till 80% confluence and then serum starved (0 % FCS) for 24 h. […] Cell migration was monitored using IncuCyte ZOOM for a period of 48 h. The images were analyzed by the Incucyte Scratch Wound Analysis Software. […]
GTPase primary antibody (RAC1, CDC42 or RHOA) was added and the tubes and were incubated for 45 min at room temperature. […] Absorption was detected at 490 nm using a plate reader (Tecan Sparks).
Aqueous solubility of compounds was assessed by determination of the kinetic solubility of a test compound in aqueous buffer compared to a solution in organic solvent (acetonitrile). […]

RHOGDI1 = biological target: T1, RHOGDI1 (Homo sapiens, UniProt P52565); assay: Fluorescence polarization competition with FITC-labelled GerGer-Rab1 peptide; type: binding; settings: 5 μM FITC-labelled GerGer-Rab1 peptide, 50 μM RHOGDI1
T1 construct: GST; made in house; host or cells: E. coli
T1 sequence (P52565 whole entry): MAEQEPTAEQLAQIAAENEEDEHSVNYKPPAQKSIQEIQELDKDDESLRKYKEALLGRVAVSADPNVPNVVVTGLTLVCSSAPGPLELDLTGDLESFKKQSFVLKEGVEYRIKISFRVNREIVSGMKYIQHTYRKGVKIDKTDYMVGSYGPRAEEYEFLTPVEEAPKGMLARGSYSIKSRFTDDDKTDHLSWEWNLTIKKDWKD
Description: Figure 4 Compound 7 a is a RHOGDI1 inhibitor. a) Structure of the affinity probes 8 and 9. b) Affinity‐based enrichment of RHOGDI1 from NIH/3T3 lysates by probe 8 as compared to probe 9 and detection using a RHOGDI1 antibody. c) Competition pulldown was performed as in b in presence of S10a as a competitor. d) Structure of the fluorescent derivative 10. e) Binding of derivative 10 to RHOGDI1‐3. […] Fluorescence polarization measurements using 10 and RHOGDI1‐3. […] Representative data (n=3). P: pellet; S: supernatant. g) Competition of derivative 10 with RAC1. Fluorescence polarization measurements after adding 2 μM prenylated RAC1 or non‐prenylated RAC1 to 2 μM compound 10 and 5 μM RHOGDI1. Representative data (n=3). h) Fluorescence polarization measurements upon titration of 7 a into a mixture of 5 μM FITC‐labelled GerGer‐Rab1 peptide and 50 μM RHOGDI1.

[1] = biological target: T2, RHOGDI1-mediated extraction of CDC42 (Homo sapiens, UniProt P52565); assay: Liposome sedimentation assay: displacement of prenylated GDP-bound CDC42 by GST-RHOGDI1; type: biochemical; settings: 50 μM compound
T2 construct: made in house; host or cells: RHOGDI1: E. coli; prenylated CDC42: insect cells (TNAO38)
T2 sequence (P52565 whole entry): as above
Description: Supplementary Figure S4. Compound 7a impairs RHOGDI1 function. (a) Assay setup for the liposome sedimentation assay. (b) Displacement of prenylated GDP‐bound RAC1 from synthetic liposomes by GST-RHOGDI1 in the presence or absence of 50 μM 7a was measured using liposome floatation assay. Data is representative of three independent experiments.
Liposome-containing phase represented by fluorescent colour as result of 5% fluorescent NDB-PE was analysed by Western blotting. Data are representatives of three independent […]
experiments. (c-d) Displacement of prenylated
GDP‐bound RHO GTPases (RHOA and CDC42) from synthetic liposomes by GST‐RHOGDI1 […]
liposome sedimentation assay. Data is representative of three independent experiments. P: […]
Liposome sedimentation assay
Liposomes were prepared by self-assembly of the lipids (500 μg) containing 20% (w/w) phosphatidylethanolamine, 45% (w/w) phosphatidylcholine, 20% (w/w) phosphatidylserine, 10% (w/w) cholesterol, and 5% (w/w) phosphatidylinositol 4,5-bisphosphate. […] The resulting pellet and supernatant fractions were collected and analyzed by immunoblotting. […]
The resulting samples were centrifuged at 140000 x g for 1 h at 4 °C. The upper liposome‐ containing phase (detected by fluorescent NDB‐PE) was collected and analyzed by […]

Row | SMILES | Wound closure / cell migration (in words) (NIH/3T3 cells) | Competition with binding of RHOGDI1 to GerGer-RAB1 peptide (in words) (RHOGDI1) | Inhibition of RHOGDI1-mediated extraction of CDC42 (in words) [1]
1 | COC(=O)C1(C(CC(=O)c2cccnc2)c2ccccc2)N=C(c2ccc(Br)cc2)C2C(=O)N(C)C(=O)C21 (stereo not drawn) [7l] | moderately inhibited wound closure | – | –
2 | COC(=O)C1(C(CC(=O)c2ccccc2)c2ccccc2)N=C(c2ccc(Br)cc2)C2C(=O)N(C)C(=O)C21 (stereo not drawn) [7a] | – | competed | inhibited
